Experimental data from US20220339260A1, “METHOD FOR PRODUCING INSULIN-PRODUCING CELL USING DIHYDROINDOLIZINONE DERIVATIVES” (TOKYO INSTITUTE OF TECHNOLOGY, priority 2019, published 2022).

Test system: human iPS cell Toe strain
Assay: Effect to promote differentiation from human iPS cells into insulin-producing cells (insulin-positive cell rate, Reference Example 1)
Assay type: cell-based
Conditions: 10 μM; average of 30 cases; untreated control 4.9%

O=C1CCC(C(=O)Nc2ncc(-c3ccccc3)s2)n2cccc21 (stereo not shown) [Synthesis Example 1, 8-Oxo-N-(5-phenylthiazol-2-yl)-6,7-dihydro-5H-indolizine-5-carboxamide]
average insulin-positive cell rate: 13%
